pIC50: −log10 of the molar value.
Assays:
cIAP2-BIR3 = cIAP2-BIR3 (Homo sapiens (Human), UniProt Q13489); test: BIR binding assay (FRET competition), cIAP2 BIR3; details: for cIAP2 BIR3 vs BIR2 separation window: fold separation (FS) for cIAP2
[1] = test system: Jurkat HIV-luciferase clones; test: Jurkat latency reversal assay; format: cell-based; details: Homo sapiens, 48 h; Jurkat latency reversal assay potency; read-out: Jurkat pEC50 (converted)
Outline: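 Three pooled Jurkat reporter clones, each with one or two integrated HIV-luciferase proviruses, 5,000 cells/well; duplicate 14-point titrations starting at 10 μM; 48 h, 37° C, then Steady-Glo luminescence; four-parameter logistic analysis yields EC50 and percent maximal activation against DMSO vehicle.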

cIAP1-BIR3 = cIAP1-BIR3 (Homo sapiens (Human), UniProt Q13490); test: BIR binding assay (FRET competition), cIAP1 BIR3; details: for cIAP1 BIR3 vs BIR2 separation window: fold separation (FS) for cIAP1
Chain of cIAP1-BIR3 (Q13490 253-363): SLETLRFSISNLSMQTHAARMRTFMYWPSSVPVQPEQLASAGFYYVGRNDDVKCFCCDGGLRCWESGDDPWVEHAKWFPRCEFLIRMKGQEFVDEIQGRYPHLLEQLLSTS
Outline: (§1)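 His-tagged domains (50 nM cIAP1-BIR3, 325 nM cIAP2-BIR2, 325 nM cIAP1-BIR2, 100 nM XIAP-BIR3) compete with compounds for a 200 nM AlexaFluor647-labelled SMAC/DIABLO peptide in HEPES buffer, pH 7.4, for 60 min. Then 2 nM Eu-W1024 is added for 30 min. The 615/665 nm ratio is fit by four-parameter fit to give IC50.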

cIAP1-BIR2 = cIAP1-BIR2 (Homo sapiens (Human), UniProt Q13490); test: BIR binding assay (FRET competition), cIAP1 BIR2
Chain of cIAP1-BIR2 (Q13490 173-257): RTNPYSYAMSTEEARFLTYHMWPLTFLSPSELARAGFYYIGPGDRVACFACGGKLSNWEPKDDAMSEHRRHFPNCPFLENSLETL
Outline: as §1

XIAP-BIR3 = XIAP-BIR3 (Homo sapiens (Human), UniProt P98170); test: BIR binding assay (FRET competition), XIAP BIR3
Chain of XIAP-BIR3 (P98170 241-356): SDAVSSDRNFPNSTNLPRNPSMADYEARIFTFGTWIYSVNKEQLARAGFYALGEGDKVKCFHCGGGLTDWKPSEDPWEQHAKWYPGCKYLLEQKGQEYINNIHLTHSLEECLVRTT
Outline: as §1

cIAP2-BIR2 = cIAP2-BIR2 (Homo sapiens (Human), UniProt Q13489); test: BIR binding assay (FRET competition), cIAP2 BIR2
Chain of cIAP2-BIR2 (Q13489 158-242): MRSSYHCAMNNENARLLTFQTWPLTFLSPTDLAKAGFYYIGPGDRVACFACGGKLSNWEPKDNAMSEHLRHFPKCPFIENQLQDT
Protocol: The BIR domain binding assays are FRET based competition assays that utilize His-tagged versions of each of the BIR2 and BIR3 domains from cIAP1, cIAP2, and XIAP (each domain assayed separately) each at a custom optimal concentration and a probe, 200 nM SMAC/DIABLO peptide […] labelled with AlexaFluor647 (part #crb 1110326h, Discovery Peptides). The assay is conducted in 50 mM HEPES, […], 1 mM CHAPS, 5% Glycerol, 1 mM DTT, in dI water with a final pH of 7.4 and final volume of 20 uL. Final protein domain concentrations are: 50 nM cIAP1-BIR3 (Part #APT-11-370 Reaction Biology), 100 nM XIAP-BIR3 (Part #APT-11-351 Reaction Biology), 200 nM XIAP-BIR2 (Part #APT-11-470 Reaction Biology), 325 nM cIAP2-BIR2 (Part #APT-11-489 Reaction Biology), 50 nM cIAP2-BIR3 (Part #APT-11-372 Reaction Biology), 325 nM cIAP1-BIR2 (Part #APT-11-487 Reaction Biology). Compounds were plated using a HP Tecan D300 printer in a final total volume of 202 nl and DMSO concentration normalized across the 15-point, 3-fold dilution series. Peptide and probe were prepared at 2× relative to the concentrations above in binding buffer, 10 uL added to the prepared compound plates, and incubated for 60 minutes. LANCE Eu-W1024 (part #AD0401 Perkin Elmer #, vendor) was prepared at 2× concentration in binding buffer for final concentration of 2 nM, 10 uL added to each well, and plates incubated for 30 minutes. Plates were read on an ENVISION multifunction plate reader with […] laser excitation to obtain the 615 nm/665 nm emission ratio as indicative of probe:protein proximity. Data was analyzed using GraphPad PRISM and curves fit using log(inhibitor) vs. response—Variable slope (four […] method to obtain IC50 and pIC50 values.

Chain of cIAP2-BIR3 (Q13489 238-349): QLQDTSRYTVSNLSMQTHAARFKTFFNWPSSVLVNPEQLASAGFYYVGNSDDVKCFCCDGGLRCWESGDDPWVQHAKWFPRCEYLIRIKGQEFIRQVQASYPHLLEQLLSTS

| SMILES | pIC50 (cIAP2-BIR3) | cIAP2 BIR3 vs BIR2 separation window (cIAP2-BIR3) | EC50 [1] | pIC50 (cIAP1-BIR3) | cIAP1 BIR3 vs BIR2 separation window (cIAP1-BIR3) | pIC50 (cIAP1-BIR2) | pIC50 (XIAP-BIR3) | pIC50 (cIAP2-BIR2) | cIAP2 BIR3 (pIC50) (cIAP2-BIR3; FRET competition) | cIAP1 BIR3 (pIC50) (cIAP1-BIR3; FRET competition) | cIAP1 BIR2 (pIC50) (cIAP1-BIR2; FRET competition) | XIAP BIR3 (pIC50) (XIAP-BIR3; FRET competition) | cIAP2 BIR2 (pIC50) (cIAP2-BIR2; FRET competition) |
| --- | --- | --- | --- | --- | --- | --- | --- | --- | --- | --- | --- | --- | --- |
| Cc1cc(OC[C@@H]2CN(C[C@H]3CN[C@H](C)CN3CC(=O)N3CC(C)(C)c4[nH]c(=O)c(Cc5ccc(F)cc5)cc43)CCO2)cc(OC[C@@H]2CN(C[C@H]3CN[C@H](C)CN3CC(=O)N3CC(C)(C)c4[nH]c(=O)c(Cc5ccc(F)cc5)cc43)CCO2)c1 [Example 86, 1,1′-(2,2′-((3R,3′R,6R,6′R)-(((2S,2'S)-(((5-methyl-1,3-phenylene)bis(oxy))bis(methylene))bis(morpholine-2,4-diyl))bis(methylene))bis(3-methylpiperazine-6,1-diyl))bis(acetyl))bis(6-(4-fluorobenzyl)-3,3-dimethyl-1,2,3,4-tetrahydro-5H-pyrrolo[3,2-b]pyridin-5-one)] | 7.80 to 8.10 | +++ (10,000>FS>1,000) | 0.49 to 12.6 nM | 7.80 to 8.10 | +++ (10,000>FS>1,000) | 5.50 to 6.00 | 7.50 to 7.80 | 5.50 to 6.00 | – | – | – | – | – |
| C[C@@H]1CN(CC(=O)N2CC(C)(C)c3[nH]c(=O)c(Cc4c(Cl)cc(Cl)cc4Cl)cc32)[C@@H](CN2CCO[C@H](C(=O)NCc3ccc(CNC(=O)[C@@H]4CN(C[C@H]5CN[C@H](C)CN5CC(=O)N5CC(C)(C)c6[nH]c(=O)c(Cc7c(Cl)cc(Cl)cc7Cl)cc65)CCO4)cc3)C2)CN1 [Compound 180, (2S,2′S)-N,N′-(1,4-phenylenebis(methylene)) bis(4-(((2R,5R)-1-(2-(3,3-dimethyl-5-oxo-6-(2,4,6-trichlorobenzyl)-2,3,4,5-tetrahydro-1H-pyrrolo[3,2-b]pyridin-1-yl)-2-oxoethyl)-5-methylpiperazin-2-yl)methyl)morpholine-2-carboxamide)] | 6.30 to 7.50 | ++ (1,000>FS>100) | 63.1 to 316 nM | 6.30 to 7.50 | ++ (1,000>FS>100) | 4.29 to 5.00 | 6.30 to 7.50 | 4.29 to 5.00 | – | – | – | – | – |
| C[C@@H]1CN(CC(=O)N2CC(C)(C)c3[nH]c(=O)c(Cc4ccc(F)cc4)cc32)[C@@H](CN2CCO[C@H](COc3ccc(F)c(OC[C@@H]4CN(C[C@H]5CN[C@H](C)CN5CC(=O)N5CC(C)(C)c6[nH]c(=O)c(Cc7ccc(F)cc7)cc65)CCO4)c3F)C2)CN1 [Example 74, 1,1′-(2,2′-((3R,3′R,6R,6′R)-(((2S,2'S)-(((2,4-difluoro-1,3-phenylene)bis(oxy))bis(methylene))bis(morpholine-2,4-diyl))bis(methylene))bis(3-methylpiperazine-6,1-diyl))bis(acetyl))bis(6-(4-fluorobenzyl)-3,3-dimethyl-1,2,3,4-tetrahydro-5H-pyrrolo[3,2-b]pyridin-5-one)] | 8.10 to 8.86 | +++ (10,000>FS>1,000) | 0.49 to 12.6 nM | 8.10 to 8.86 | +++ (10,000>FS>1,000) | 5.50 to 6.00 | 8.10 to 8.86 | 5.50 to 6.00 | – | – | – | – | – |
| CC(C)c1ccccc1Cc1cc2c([nH]c1=O)C(C)(C)CN2C(=O)CN1C[C@@H](C)NC[C@@H]1CN1CCO[C@H](C(=O)NCc2ccc(CNC(=O)[C@@H]3CN(C[C@H]4CN[C@H](C)CN4CC(=O)N4CC(C)(C)c5[nH]c(=O)c(Cc6ccccc6C(C)C)cc54)CCO3)cc2)C1 [Compound 173, (2S,2′S)-N,N′-(1,4-phenylenebis(methylene)) bis(4-(((2R,5R)-1-(2-(6-(2-isopropylbenzyl)-3,3-dimethyl-5-oxo-2,3,4,5-tetrahydro-1H-pyrrolo[3,2-b]pyridin-1-yl)-2-oxoethyl)-5-methylpiperazin-2-yl)methyl)morpholine-2-carboxamide)] | 7.50 to 7.80 | +++ (10,000>FS>1,000) | 63.1 to 316 nM | 6.30 to 7.50 | +++ (10,000>FS>1,000) | 4.29 to 5.00 | 6.30 to 7.50 | 5.00 to 5.50 | – | – | – | – | – |
| C[C@@H]1CN(CC(=O)N2CC(C)(C)c3[nH]c(=O)c(Cc4ccc(Cl)cc4)cc32)[C@@H](CN2CCO[C@H](C(=O)NCc3ccc(CNC(=O)[C@@H]4CN(C[C@H]5CN[C@H](C)CN5CC(=O)N5CC(C)(C)c6[nH]c(=O)c(Cc7ccc(Cl)cc7)cc65)CCO4)cc3)C2)CN1 [Compound 161, (2S,2′S)-N,N′-(1,4-phenylenebis(methylene)) bis(4-(((2R,5R)-1-(2-(6-(4-chlorobenzyl)-3,3-dimethyl-5-oxo-2,3,4,5-tetrahydro-1H-pyrrolo[3,2-b]pyridin-1-yl)-2-oxoethyl)-5-methylpiperazin-2-yl)methyl)morpholine-2-carboxamide)] | 8.10 to 8.86 | ++++ (FS>10,000) | 0.49 to 12.6 nM | 8.10 to 8.86 | +++ (10,000>FS>1,000) | 6.00 to 7.65 | 7.80 to 8.10 | 4.29 to 5.00 | – | – | – | – | – |
| C[C@@H]1CN(CC(=O)N2CC(C)(C)c3[nH]c(=O)c(Cc4ccc(F)cc4)cc32)[C@@H](CN2CCC[C@H](NC(=O)CCCCCCCCCCCCC(=O)N[C@H]3CCCN(C[C@H]4CN[C@H](C)CN4CC(=O)N4CC(C)(C)c5[nH]c(=O)c(Cc6ccc(F)cc6)cc54)C3)C2)CN1 [Example 40, N^1,N^14-bis((S)-1-(((2R,5R)-1-(2-(6-(4-fluorobenzyl)-3,3-dimethyl-5-oxo-2,3,4,5-tetrahydro-1H-pyrrolo[3,2-b]pyridin-1-yl)-2-oxoethyl)-5-methylpiperazin-2-yl)methyl)piperidin-3-yl)tetradecanediamide] | 7.50 to 7.80 | +++ (10,000>FS>1,000) | 63.1 to 316 nM | 7.50 to 7.80 | +++ (10,000>FS>1,000) | 4.29 to 5.00 | 6.30 to 7.50 | 4.29 to 5.00 | – | – | – | – | – |
| C[C@@H]1CN(CC(=O)N2CC(C)(C)c3[nH]c(=O)c(Cc4cc(F)c(F)c(F)c4F)cc32)[C@@H](CN2CCO[C@H](C(=O)NCc3ccc(CNC(=O)[C@@H]4CN(C[C@H]5CN[C@H](C)CN5CC(=O)N5CC(C)(C)c6[nH]c(=O)c(Cc7cc(F)c(F)c(F)c7F)cc65)CCO4)cc3)C2)CN1 [Compound 174, (2S,2′S)-N,N′-(1,4-phenylenebis(methylene)) bis(4-(((2R,5R)-1-(2-(3,3-dimethyl-5-oxo-6-(2,3,4,5-tetrafluorobenzyl)-2,3,4,5-tetrahydro-1H-pyrrolo[3,2-b]pyridin-1-yl)-2-oxoethyl)-5-methylpiperazin-2-yl)methyl)morpholine-2-carboxamide)] | – | +++ (10,000>FS>1,000) | 0.49 to 12.6 nM | – | +++ (10,000>FS>1,000) | – | – | – | +++ (8.10>pIC50>=7.80) | +++ (8.10>pIC50>=7.80) | ++ (5.00<pIC50<=5.50) | ++ (7.80>pIC50>=7.50) | ++ (5.00<pIC50<=5.50) |
| C[C@@H]1CN(CC(=O)N2CC(C)(C)c3c2cc(Cc2ccc(F)cc2)c(=O)n3C)[C@@H](CN2CCO[C@H](COCC#CC#CCOC[C@@H]3CN(C[C@H]4CN[C@H](C)CN4CC(=O)N4CC(C)(C)c5c4cc(Cc4ccc(F)cc4)c(=O)n5C)CCO3)C2)CN1 [Example 116, 1,1′-(2,2′-((3R,3′R,6R,6′R)-(((2S,2'S)-((hexa-2,4-diyne-1,6-diylbis(oxy))bis(methylene))bis(morpholine-2,4-diyl))bis(methylene))bis(3-methylpiperazine-6,1-diyl))bis(acetyl))bis(6-(4-fluorobenzyl)-3,3,4-trimethyl-1,2,3,4-tetrahydro-5H-pyrrolo[3,2-b]pyridin-5-one)] | 7.50 to 7.80 | +++ (10,000>FS>1,000) | 316 to 3310 nM | 7.50 to 7.80 | +++ (10,000>FS>1,000) | 5.00 to 5.50 | 6.30 to 7.50 | 5.00 to 5.50 | – | – | – | – | – |

Reference: patent US20250326771A1, “PIPERAZINE DERIVATIVES USEFUL IN HIV THERAPY” (VIIV HEALTHCARE COMPANY, priority 2022, published 2025)
